Positions count from the first letter of the chain named. Where two headings read alike, the source gives them in different places.
Key:
[1] = target: T1, human AR (Homo sapiens, UniProt P10275); assay: Competitive AR binding assay against [3H]-R1881 in transiently transfected COS-1 cells; conditions: compound 13.4 μM, [3H]-R1881 1.34 nM, complete inhibition equals 100%, read-out: Inhibition of [3H]-R1881 binding at 1.34 nM ± S.D.
T1 construct: expressed in transfected cells; host or cells: COS-1
T1 sequence (P10275 1-920): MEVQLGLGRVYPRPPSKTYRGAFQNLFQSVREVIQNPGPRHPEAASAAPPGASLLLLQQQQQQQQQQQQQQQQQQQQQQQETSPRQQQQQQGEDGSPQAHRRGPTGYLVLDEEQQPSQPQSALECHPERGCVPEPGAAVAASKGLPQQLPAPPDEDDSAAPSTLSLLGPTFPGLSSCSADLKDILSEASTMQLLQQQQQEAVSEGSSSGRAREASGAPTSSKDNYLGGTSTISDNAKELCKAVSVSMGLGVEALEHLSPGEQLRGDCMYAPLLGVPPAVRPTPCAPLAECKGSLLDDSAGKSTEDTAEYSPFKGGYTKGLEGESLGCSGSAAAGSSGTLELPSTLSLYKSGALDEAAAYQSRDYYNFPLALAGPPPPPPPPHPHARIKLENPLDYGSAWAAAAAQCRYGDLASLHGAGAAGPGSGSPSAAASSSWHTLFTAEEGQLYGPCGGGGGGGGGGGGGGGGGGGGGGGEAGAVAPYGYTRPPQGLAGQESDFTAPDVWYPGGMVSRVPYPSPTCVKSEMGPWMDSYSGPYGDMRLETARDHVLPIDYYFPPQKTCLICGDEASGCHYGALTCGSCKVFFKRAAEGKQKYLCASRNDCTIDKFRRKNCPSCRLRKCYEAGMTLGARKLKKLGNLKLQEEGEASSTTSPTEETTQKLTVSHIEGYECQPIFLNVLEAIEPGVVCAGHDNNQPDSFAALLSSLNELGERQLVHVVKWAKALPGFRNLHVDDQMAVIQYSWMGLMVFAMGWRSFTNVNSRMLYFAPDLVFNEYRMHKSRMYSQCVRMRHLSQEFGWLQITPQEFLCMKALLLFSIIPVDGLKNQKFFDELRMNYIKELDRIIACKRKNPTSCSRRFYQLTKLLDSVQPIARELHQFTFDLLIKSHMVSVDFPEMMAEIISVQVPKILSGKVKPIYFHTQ
In short: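 COS-1 cells transfected 24 h with human AR vector, then after 36 h exposed 2 h at 37° C to compound at 10000-fold molar excess over 1.34 nM [3H]-R1881. Cell-bound radioactivity counted in triplicate; result given as % inhibition of labelled R1881 binding.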

[2] = target: T2, LNCaP (containing an AR mutation) (Homo sapiens, UniProt P10275, T878A); conditions: LNCaP prostate cancer cells; cited from earlier work
T2 sequence (P10275 1-920 T878A): T1 sequence (P10275 1-920) with T878A

CC(C)(O)C(=O)Nc1ccc([N+](=O)[O-])c(C(F)(F)F)c1 [Hydroxyflutamide, reference compound] showed an inhibition at 13.4 µM ([1]; Table 1) of 91.1 ± 2.2%, an inhibition at 13.4 µM ([1]; Table 2) of 94.8 ± 0.8% and an inhibition at 13.4 µM ([1]; Table 3) of 95.2 ± 2.9%. For the same compound, the “Activity of hydroxyflutamide at the AR mutation of LNCaP cells” value [2] was “agonist”.

From US9278942B2, “Non-steroidal compounds as androgen receptor modulators” (FLX Discoveries Oy, priority 2011, dated 2016)
